In patent publication US9981940B2, “Aryl sulfide derivatives and aryl sulfoxide derivatives as acaricides and insecticides” (BAYER CROPSCIENCE AKTIENGESELLSCHAFT, priority 2013, dated 2018):

Tested on: Tetranychus urticae
Test: Tetranychus urticae spray test, OP-resistant (TETRUR)
Format: in vivo
Details: application rate of 500 g/ha; after 6 days
Method in brief: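 Mortality as % efficacy (0% = no mites killed) read 6 days after spraying. Formulation: active ingredient in acetone/dimethylformamide plus emulsifier, diluted with emulsifier-containing water, applied to Phaseolus vulgaris leaf discs carrying every life stage of OP-resistant spider mites.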

In order of falling efficacy:
1. Cc1cc(F)c(-n2nc(OCC(C)(C)C)n(C3CC3)c2=O)cc1SCC(F)(F)F [Example 386]  100%
2. C=CCOc1nn(-c2cc([S+]([O-])CC(F)(F)F)c(C)cc2F)c(=O)n1C1CC1 (stereo not drawn) [Example 391]  100%
3. COc1cc(F)c(-n2nc(OCC(C)(C)C)n(C3CC3)c2=O)cc1SCC(F)(F)F [Example 395]  100%
4. Cc1cc(Cl)c(-n2nc(OCC(C)(C)C)n(C3CC3)c2=O)cc1SCC(F)(F)F [Example 396]  100%
5. CC(C)(C)COc1nn(-c2cc(SCC(F)(F)F)c(Cl)cc2Cl)c(=O)n1C1CC1 [Example 397]  100%
6. CCn1c(OCC(F)(F)F)nn(-c2cc(SCC(F)(F)F)c(C)cc2F)c1=O [Example 398]  100%
7. CCCOc1nn(-c2cc(SCC(F)(F)F)c(C)cc2F)c(=O)n1CC [Example 400]  100%
8. CCOc1nn(-c2cc(SCC(F)(F)F)c(C)cc2F)c(=O)n1CC [Example 401]  100%
9. COc1cc(F)c(-n2nc(OCC(C)(C)C)n(C3CC3)c2=O)cc1[S+]([O-])CC(F)(F)F (stereo not drawn) [Example 403]  100%
10. Cc1cc(Cl)c(-n2nc(OCC(C)(C)C)n(C3CC3)c2=O)cc1[S+]([O-])CC(F)(F)F (stereo not drawn) [Example 404]  100%
11. CCCOc1nn(-c2cc([S+]([O-])CC(F)(F)F)c(C)cc2F)c(=O)n1CC (stereo not drawn) [Example 408]  100%
12. COCCCn1c(OC)nn(-c2cc(SCC(F)(F)F)c(C)cc2F)c1=O [Example 388]  90%
13. CCCn1c(OC)nn(-c2cc(SCC(F)(F)F)c(C)cc2F)c1=O [Example 389]  90%
14. C=CCn1c(OCC(F)(F)F)nn(-c2cc(SCC(F)(F)F)c(C)cc2F)c1=O [Example 399]  90%
15. CC(C)(C)COc1nn(-c2cc([S+]([O-])CC(F)(F)F)c(Cl)cc2F)c(=O)n1C1CC1 (stereo not drawn) [Example 402]  90%
16. CC(C)(C)COc1nn(-c2cc([S+]([O-])CC(F)(F)F)c(Cl)cc2Cl)c(=O)n1C1CC1 (stereo not drawn) [Example 405]  90%
17. C=CCn1c(OCC(F)(F)F)nn(-c2cc([S+]([O-])CC(F)(F)F)c(C)cc2F)c1=O (stereo not drawn) [Example 407]  90%

Tested on: not listed separately
Test: log P by HPLC (OECD Guideline 117), method [a] acidic range
Format: physicochemical
Details: HPLC, method [a] acidic range
Procedure: (§1) The log P values were determined analogously to OECD Guideline 117 (EC Directive 92/69/EEC) by HPLC (high-performance liquid chromatography) using reversed-phase columns (C 18), by the following methods:
[a] The LC-MS determination in the acidic range is effected at pH 2.7 with 0.1% aqueous formic acid and acetonitrile (contains 0.1% formic acid) as eluents; linear gradient from 10% acetonitrile to 95% acetonitrile.

In order of falling “logP[a]” value:
1. CC(C)(C)COc1nn(-c2cc(SCC(F)(F)F)c(Cl)cc2Cl)c(=O)n1C1CC1 [Example 397]  5.12
2. Cc1cc(Cl)c(-n2nc(OCC(C)(C)C)n(C3CC3)c2=O)cc1SCC(F)(F)F [Example 396]  4.92
3. Cc1cc(F)c(-n2nc(OCC(C)(C)C)n(C3CC3)c2=O)cc1SCC(F)(F)F [Example 386]  4.77
4. COc1cc(F)c(-n2nc(OCC(C)(C)C)n(C3CC3)c2=O)cc1SCC(F)(F)F [Example 395]  4.38
5. CC(C)(C)COc1nn(-c2cc([S+]([O-])CC(F)(F)F)c(Cl)cc2Cl)c(=O)n1C1CC1 (stereo not drawn) [Example 405]  4.36
6. CC(C)(C)COc1nn(-c2cc([S+]([O-])CC(F)(F)F)c(Cl)cc2F)c(=O)n1C1CC1 (stereo not drawn) [Example 402]  4.13
7. CCCOc1nn(-c2cc(SCC(F)(F)F)c(C)cc2F)c(=O)n1CC [Example 400]  4.06
8. C=CCn1c(OCC(F)(F)F)nn(-c2cc(SCC(F)(F)F)c(C)cc2F)c1=O [Example 399]  3.94
9. CCn1c(OCC(F)(F)F)nn(-c2cc(SCC(F)(F)F)c(C)cc2F)c1=O [Example 398]  3.84
10. Cc1cc(Cl)c(-n2nc(OCC(C)(C)C)n(C3CC3)c2=O)cc1[S+]([O-])CC(F)(F)F (stereo not drawn) [Example 404]  3.79
11. CCOc1nn(-c2cc(SCC(F)(F)F)c(C)cc2F)c(=O)n1CC [Example 401]  3.62
12. CCCn1c(OC)nn(-c2cc(SCC(F)(F)F)c(C)cc2F)c1=O [Example 389]  3.53
13. COc1cc(F)c(-n2nc(OCC(C)(C)C)n(C3CC3)c2=O)cc1[S+]([O-])CC(F)(F)F (stereo not drawn) [Example 403]  3.50
14. COCCCn1c(OC)nn(-c2cc(SCC(F)(F)F)c(C)cc2F)c1=O [Example 388]  3.16
15. C=CCn1c(OCC(F)(F)F)nn(-c2cc([S+]([O-])CC(F)(F)F)c(C)cc2F)c1=O (stereo not drawn) [Example 407]  2.94
16. CCCOc1nn(-c2cc([S+]([O-])CC(F)(F)F)c(C)cc2F)c(=O)n1CC (stereo not drawn) [Example 408]  2.86
17. C=CCOc1nn(-c2cc([S+]([O-])CC(F)(F)F)c(C)cc2F)c(=O)n1C1CC1 (stereo not drawn) [Example 391]  2.68

Tested on: not listed separately
Test: log P by HPLC (OECD Guideline 117), method [b] neutral range
Format: physicochemical
Details: HPLC, method [b] neutral range
Procedure: as §1
[b] The LC-MS determination in the neutral range is effected at pH 7.8 with 0.001 molar aqueous ammonium hydrogencarbonate solution and acetonitrile as eluents; linear gradient from 10% acetonitrile to 95% acetonitrile.

In order of rising “logP[b]” value:
1. C=CCOc1nn(-c2cc([S+]([O-])CC(F)(F)F)c(C)cc2F)c(=O)n1C1CC1 (stereo not drawn) [Example 391]  2.65
2. CCCOc1nn(-c2cc([S+]([O-])CC(F)(F)F)c(C)cc2F)c(=O)n1CC (stereo not drawn) [Example 408]  2.81
3. C=CCn1c(OCC(F)(F)F)nn(-c2cc([S+]([O-])CC(F)(F)F)c(C)cc2F)c1=O (stereo not drawn) [Example 407]  2.90
4. COCCCn1c(OC)nn(-c2cc(SCC(F)(F)F)c(C)cc2F)c1=O [Example 388]  3.15
5. COc1cc(F)c(-n2nc(OCC(C)(C)C)n(C3CC3)c2=O)cc1[S+]([O-])CC(F)(F)F (stereo not drawn) [Example 403]  3.44
6. CCCn1c(OC)nn(-c2cc(SCC(F)(F)F)c(C)cc2F)c1=O [Example 389]  3.46
7. CCOc1nn(-c2cc(SCC(F)(F)F)c(C)cc2F)c(=O)n1CC [Example 401]  3.53
8. Cc1cc(Cl)c(-n2nc(OCC(C)(C)C)n(C3CC3)c2=O)cc1[S+]([O-])CC(F)(F)F (stereo not drawn) [Example 404]  3.71
9. CCn1c(OCC(F)(F)F)nn(-c2cc(SCC(F)(F)F)c(C)cc2F)c1=O [Example 398]  3.79
10. C=CCn1c(OCC(F)(F)F)nn(-c2cc(SCC(F)(F)F)c(C)cc2F)c1=O [Example 399]  3.89
11. CCCOc1nn(-c2cc(SCC(F)(F)F)c(C)cc2F)c(=O)n1CC [Example 400]  3.96
12. CC(C)(C)COc1nn(-c2cc([S+]([O-])CC(F)(F)F)c(Cl)cc2F)c(=O)n1C1CC1 (stereo not drawn) [Example 402]  3.98
13. CC(C)(C)COc1nn(-c2cc([S+]([O-])CC(F)(F)F)c(Cl)cc2Cl)c(=O)n1C1CC1 (stereo not drawn) [Example 405]  4.18
14. COc1cc(F)c(-n2nc(OCC(C)(C)C)n(C3CC3)c2=O)cc1SCC(F)(F)F [Example 395]  4.32
15. Cc1cc(F)c(-n2nc(OCC(C)(C)C)n(C3CC3)c2=O)cc1SCC(F)(F)F [Example 386]  4.71
16. Cc1cc(Cl)c(-n2nc(OCC(C)(C)C)n(C3CC3)c2=O)cc1SCC(F)(F)F [Example 396]  4.85
17. CC(C)(C)COc1nn(-c2cc(SCC(F)(F)F)c(Cl)cc2Cl)c(=O)n1C1CC1 [Example 397]  5.04
